Measured values reported in paper PMC3631187, “Structural and Functional Insights into Saccharomyces cerevisiae Riboflavin Biosynthesis Reductase RIB7” (PLoS ONE, 2013).

T1: ScRIB7 (Saccharomyces cerevisiae, UniProt P33312, D83A)
T1 construct: gene RIB7; recombinant in E. coli BL21(DE3), pGEX6p-1, GST tag removed with PreScission protease; homodimer, ~43 kDa by sedimentation
T1 sequence (P33312 1-244 D83A): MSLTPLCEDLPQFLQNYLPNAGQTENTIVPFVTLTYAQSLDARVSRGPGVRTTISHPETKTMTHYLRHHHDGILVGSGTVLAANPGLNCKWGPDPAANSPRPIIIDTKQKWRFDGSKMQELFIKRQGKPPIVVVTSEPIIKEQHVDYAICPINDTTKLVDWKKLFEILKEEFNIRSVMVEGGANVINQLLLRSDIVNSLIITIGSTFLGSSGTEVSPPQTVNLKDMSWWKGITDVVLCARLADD

T2: ScRIB7 (Saccharomyces cerevisiae, UniProt P33312, T79A)
T2 construct: gene RIB7; recombinant in E. coli BL21(DE3), pGEX6p-1, GST tag removed with PreScission protease; homodimer, ~43 kDa by sedimentation
T2 sequence (P33312 1-244 T79A): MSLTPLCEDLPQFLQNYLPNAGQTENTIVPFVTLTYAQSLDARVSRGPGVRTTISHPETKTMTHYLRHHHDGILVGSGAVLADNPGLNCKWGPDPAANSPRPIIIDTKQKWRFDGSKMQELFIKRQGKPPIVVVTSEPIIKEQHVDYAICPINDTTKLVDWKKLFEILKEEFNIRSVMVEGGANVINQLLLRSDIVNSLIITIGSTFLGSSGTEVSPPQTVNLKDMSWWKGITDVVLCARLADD

T3: ScRIB7 (Saccharomyces cerevisiae, UniProt P33312)
T3 construct: gene RIB7; recombinant in E. coli BL21(DE3), pGEX6p-1, GST tag removed with PreScission protease; homodimer, ~43 kDa by sedimentation
T3 sequence (P33312 1-244): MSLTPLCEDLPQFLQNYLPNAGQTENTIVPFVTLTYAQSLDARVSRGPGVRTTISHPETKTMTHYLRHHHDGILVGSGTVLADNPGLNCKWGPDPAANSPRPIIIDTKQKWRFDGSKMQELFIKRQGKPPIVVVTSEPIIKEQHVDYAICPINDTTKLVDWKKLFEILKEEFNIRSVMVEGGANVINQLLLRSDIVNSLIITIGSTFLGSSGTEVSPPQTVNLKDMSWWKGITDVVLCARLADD

B1: Saccharomyces cerevisiae RIB7 (enzyme)
chain: MSLTPLCEDLPQFLQNYLPNAGQTENTIVPFVTLTYAQSLDARVSRGPGVRTTISHPETKTMTHYLRHHHDGILVGSGTVLADNPGLNCKWGPDPAANSPRPIIIDTKQKWRFDGSKMQELFIKRQGKPPIVVVTSEPIIKEQHVDYAICPINDTTKLVDWKKLFEILKEEFNIRSVMVEGGANVINQLLLRSDIVNSLIITIGSTFLGSSGTEVSPPQTVNLKDMSWWKGITDVVLCARLADD
notes: RIB7, riboflavin biosynthesis reductase of Saccharomyces cerevisiae; RIB7 gene amplified from genomic DNA and cloned BamHI/XhoI into pGEX6p-1; Wild type; A seleno-methionine derivative was used only for phasing; Residues left by the PreScission site after cleavage are not described; also called ScRIB7; riboflavin biosynthesis reductase RIB7; source: E. coli BL21 (DE3), purified …

Tests used:
[1] = target: T1, ScRIB7; assay: isothermal titration calorimetry; type: binding; conditions: 80 µM protein titrated with 800 µM NADPH in PBS
[2] = target: T2, ScRIB7; assay: isothermal titration calorimetry; type: binding; conditions: 80 µM protein titrated with 800 µM NADPH in PBS
[3] = target: T3, ScRIB7; assay: isothermal titration calorimetry; type: binding; conditions: 80 µM protein titrated with 800 µM NADPH in PBS; crystal structure of the complex (2.35 Å) also solved
[4] = target: the molecule itself; assay: SEC; gel filtration, data not shown; conditions of this run not told

Row | Molecule | binding constant [1] | no interaction heat detected [2] | binding constant [3] | stoichiometry N [4]
1 | NC(=O)C1=CN([C@@H]2O[C@H](COP(=O)(O)OP(=O)(O)OC[C@H]3O[C@@H](n4cnc5c(N)ncnc54)[C@H](OP(=O)(O)O)[C@@H]3O)[C@@H](O)[C@H]2O)C=CC1 [NADPH] | The binding constant of the D83A mutant with NADPH was similar to that of the wild type | no interaction heat was detected for the T79A mutant | Interactions between enzymes and NADPH were detected by isothermal titration calorimetry using nano-ITC2g | 
2 | B1 |  |  |  | 2
